Measured values published in PubChem BioAssay (NCI).
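How tested: cells in 96-well plates exposed to compound for 48 hours at five concentrations. TGI denotes the concentration required for complete inhibition of growth.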

Assays:
Assay in all cases: NCI anticancer screen, dose series, 48 h
786-0 renal = test system: 786-0 renal
BT-549 breast = test system: BT-549 breast
CCRF-CEM leukemia = test system: CCRF-CEM leukemia
EKVX NSCLC = test system: EKVX NSCLC
HOP-62 NSCLC = test system: HOP-62 NSCLC
HS 578T breast = test system: HS 578T breast
HT29 colon = test system: HT29 colon
IGROV1 ovarian = test system: IGROV1 ovarian
MALME-3M melanoma = test system: MALME-3M melanoma
MCF7 breast = test system: MCF7 breast
NCI-H460 lung = test system: NCI-H460 lung
NCI-H522 lung = test system: NCI-H522 lung
OVCAR-8 ovarian = test system: OVCAR-8 ovarian
SNB-75 CNS = test system: SNB-75 CNS
T-47D breast = test system: T-47D breast
TK-10 renal = test system: TK-10 renal
UO-31 renal = test system: UO-31 renal
A498 renal = test system: A498 renal
U251 CNS = test system: U251 CNS

SMILES | TGI (786-0 renal) | TGI (BT-549 breast) | TGI (CCRF-CEM leukemia) | TGI (EKVX NSCLC) | TGI (HOP-62 NSCLC) | TGI (HS 578T breast) | TGI (HT29 colon) | TGI (IGROV1 ovarian) | TGI (MALME-3M melanoma) | TGI (MCF7 breast) | TGI (NCI-H460 lung) | TGI (NCI-H522 lung) | TGI (OVCAR-8 ovarian) | TGI (SNB-75 CNS) | TGI (T-47D breast) | TGI (TK-10 renal) | TGI (UO-31 renal) | TGI (A498 renal) | TGI (U251 CNS)
O=C(c1ccccc1)N1CCC(Nc2nccs2)O1 (stereo not given) | > 10 µM | > 10 µM | > 10 µM | > 10 µM | > 10 µM | > 10 µM | > 10 µM | > 10 µM | > 10 µM | > 10 µM | > 10 µM | > 10 µM | > 10 µM | > 10 µM | > 10 µM | > 10 µM | > 10 µM | – | –
O=C(O)c1nc2ccccc2nc1NCc1ccc(F)cc1 | > 100 µM | > 100 µM | > 100 µM | > 100 µM | > 100 µM | > 100 µM | > 100 µM | > 100 µM | – | > 100 µM | > 100 µM | > 100 µM | > 100 µM | > 100 µM | > 100 µM | > 100 µM | > 100 µM | > 100 µM | > 100 µM
CC(=O)N(CCCCNC(=O)C(F)(F)F)CCCNC(=O)C(F)(F)F | > 100 µM | > 100 µM | > 100 µM | > 100 µM | > 100 µM | > 100 µM | > 100 µM | > 100 µM | – | > 100 µM | > 100 µM | > 100 µM | > 100 µM | > 100 µM | > 100 µM | > 100 µM | > 100 µM | > 100 µM | > 100 µM
COc1ccc(/C=C2\N=C(c3ccccc3)OC2=O)cc1OC(C)=O | > 100 µM | > 100 µM | 74.4 µM | – | > 100 µM | > 100 µM | > 100 µM | > 100 µM | 68.6 µM | > 100 µM | > 100 µM | – | > 100 µM | > 100 µM | > 100 µM | > 100 µM | > 100 µM | > 100 µM | > 100 µM
OCCCCCCCCCCCOc1ccc(C2OCC3(CC=CCC3)CO2)cc1 (stereo not given) | 30.5 µM | 30.9 µM | 55.6 µM | 23.8 µM | 35.9 µM | 40 µM | 14.8 µM | 33 µM | 43.4 µM | 19.6 µM | 36.5 µM | 23.4 µM | 43.1 µM | 28.2 µM | 31 µM | 32.1 µM | 40.9 µM | – | 33.2 µM
C=C1CC(C)(COc2ccc3c(C)cc(=O)oc3c2)OC1=O (stereo not given) | 5.65 µM | 7.56 µM | 2.46 µM | 17.8 µM | 28.4 µM | 31.9 µM | 4.5 µM | 8.98 µM | 6.75 µM | 2.39 µM | 20.8 µM | 0.491 µM | 14.8 µM | 16.3 µM | 3.8 µM | 4.06 µM | 18.9 µM | – | 25.4 µM
COCOc1c(C(OCOC)c2cnc(Sc3ccccc3)n2C)ccc(OC)c1OC (stereo not given) | > 100 µM | > 100 µM | > 100 µM | > 100 µM | > 100 µM | > 100 µM | > 100 µM | > 100 µM | > 100 µM | > 100 µM | > 100 µM | > 100 µM | > 100 µM | > 100 µM | > 100 µM | > 100 µM | > 100 µM | – | > 100 µM
COC(=O)N/N=C(\c1ccccc1)c1ccc(OC)cc1 | > 100 µM | > 100 µM | > 100 µM | > 100 µM | – | > 100 µM | > 100 µM | > 100 µM | > 100 µM | > 100 µM | > 100 µM | > 100 µM | > 100 µM | > 100 µM | > 100 µM | > 100 µM | > 100 µM | > 100 µM | > 100 µM
COc1ccc2c(c1)CCc1c-2n(CCN2CCOCC2)c2ccc(OC)cc12 | > 100 µM | > 100 µM | 53.1 µM | – | > 100 µM | > 100 µM | 53.6 µM | > 100 µM | > 100 µM | > 100 µM | > 100 µM | > 100 µM | > 100 µM | > 100 µM | > 100 µM | > 100 µM | > 100 µM | > 100 µM | > 100 µM
COc1ccc2c(c1)/C(=C\c1c(Cl)n(-c3ccccc3)c3ccccc13)C(=O)N2 | 29.2 µM | 51.3 µM | 55.8 µM | 57.5 µM | 33.6 µM | 5.28 µM | 14.2 µM | 27.9 µM | 19.3 µM | 29.5 µM | 68.2 µM | – | > 100 µM | 52.2 µM | 75.4 µM | 84.4 µM | 18.3 µM | 32 µM | 38.5 µM
COc1cc2c(cc1OC)C(=O)/C(=C/c1cc(Cl)cc(Cl)c1)C2 | > 89.7 µM | > 100 µM | > 100 µM | > 100 µM | > 100 µM | > 100 µM | > 100 µM | > 100 µM | > 59.7 µM | > 100 µM | > 100 µM | – | > 100 µM | – | > 100 µM | > 100 µM | > 100 µM | > 100 µM | > 100 µM
CCCCCCC1CC(=O)C1(Cl)Cl (stereo not given) | 32.2 µM | 48.6 µM | 29.6 µM | > 100 µM | > 100 µM | > 100 µM | 66.8 µM | 61.8 µM | 38.8 µM | 63.7 µM | – | 34.6 µM | 59.5 µM | 36 µM | > 100 µM | > 100 µM | 34.2 µM | – | > 100 µM
Cc1cccc(/C=N/NC(=S)N(C)CCc2ccccn2)n1 | > 100 µM | > 100 µM | 0.0974 µM | > 100 µM | – | > 100 µM | > 100 µM | 24.6 µM | > 54 µM | > 100 µM | > 52.5 µM | > 100 µM | > 59 µM | 21.9 µM | > 100 µM | > 100 µM | 2.36 µM | 1.03 µM | > 100 µM
